According to US6225329A, “Modulators of protein tyrosine phosphatases (PTPases)” (Novo Nordisk A/S, priority 1998, dated 2001):

How the values were obtained:
SSTR1 = SSTR1 stably expressed in CHO-K1 cells; pertussis toxin-sensitive; cited from earlier work
PTP1B = molecular target: T1, PTP1B (Homo sapiens, UniProt P18031); experiment: Inhibition of classical PTP1B (truncated, first 321 amino acids) with p-nitrophenyl phosphate substrate; assay type: biochemical; settings: p-nitrophenyl phosphate 0.16 to 10 mM; 100 mM sodium acetate pH 5.5; 25° C., 60 minutes
T1 construct: a truncated form of PTP1B (corresponding to the first 321 amino acids); made in house; host or cells: E. coli
T1 sequence (P18031 1-321): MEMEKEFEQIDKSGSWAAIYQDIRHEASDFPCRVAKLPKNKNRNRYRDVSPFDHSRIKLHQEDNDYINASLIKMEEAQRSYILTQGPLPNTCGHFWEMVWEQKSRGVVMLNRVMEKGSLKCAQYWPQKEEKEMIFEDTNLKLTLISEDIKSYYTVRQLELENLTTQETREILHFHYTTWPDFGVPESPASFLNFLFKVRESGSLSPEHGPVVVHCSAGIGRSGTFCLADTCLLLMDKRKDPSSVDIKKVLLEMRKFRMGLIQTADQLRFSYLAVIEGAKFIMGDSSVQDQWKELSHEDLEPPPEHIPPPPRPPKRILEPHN
Description: The assay conditions are as follows. […] The buffer used was 100 mM sodium acetate pH 5.5, 50 mM sodium chloride, 0.1% (w/v) bovine serum albumin and 5 mM dithiothreitol (total volume […]). The reaction was started by addition of the enzyme and carried out in microtiter plates at 25° C. for 60 minutes. The reactions are stopped by addition of NaOH. […] Inhibition is expressed as Ki values in μM.

osteoblast = settings: cited from earlier work
[1] = osteoporotics; cited from earlier work
[2] = system: osteoblastic acid phosphatase; settings: mitogenic concentrations of fluoride; cited from earlier work
[3] = system: osteoblast-like cell line UMR106; settings: cited from earlier work; for stimulation of cell growth relative to vanadate: compared with vanadate
B cell = settings: compared to T cells; cited from earlier work
skeletal muscle = settings: cited from earlier work
platelets = settings: cited from earlier work
adipocytes = settings: cited from earlier work

For somatostatin, the “stimulation of PTPase activity” value (SSTR1) is listed as “can stimulate PTPase activity”.

`O=C(O)C(=O)Nc1cc2ccccc2cc1C(=O)O` [Example 2, 3-(Oxalyl-amino)naphthalene-2-carboxylic acid] gave a Ki (PTP1B) of 9.9 µM.

In the case of `[O]=[V]([O-])([O-])[O-]` [orthovanadate], the “osteoblast proliferation and matrix formation” value (osteoblast) is listed as “appears to enhance osteoblast proliferation and matrix formation”.

In the case of `F` [fluoride], the spinal bone density [1] is given as “increase spinal bone density in osteoporotics” and the “sensitivity of osteoblastic acid phosphatase” value [2] is given as “highly sensitive”.

For `O=S(=O)([O-])[O-].[O]=[V+2]` [vanadyl], the “growth of UMR106 cells” value [3] is given as “increased the growth” and the “stimulation of cell growth relative to vanadate” value [3] is given as “stronger stimulators of cell growth than vanadate”.

For `Cc1occc(=O)c1[O-].Cc1occc(=O)c1[O-].[O]=[V+2]` [BMLOV], the “B cell selective apoptosis” value (B cell) is given as “apparent B cell selective apoptosis”.

In the case of pervanadate, the “insulin response when added to whole cells” value (skeletal muscle) is listed as “almost full insulin response”, the “tyrosine phosphorylation, secretion and aggregation of platelets” value (platelets) is listed as “significant increase in tyrosine phosphorylation, secretion and aggregation” and the “insulin response when added to whole cells” value (adipocytes) is listed as “almost full insulin response”. For the same compound, the “growth of UMR106 cells” value [3] was “increased the growth” and the “stimulation of cell growth relative to vanadate” value [3] was “stronger stimulators of cell growth than vanadate”.

In the case of `[O]=[V]([O-])([O-])[O-]` [vanadate], the “cell differentiation as measured by cell alkaline phosphatase activity” value ([3]; cell alkaline phosphatase activity) is listed as “able to regulate the cell differentiation” and the “growth of UMR106 cells” value [3] is listed as “increased the growth”.
